Data reported in publication PMC8151276, “An Integrated Approach toward NanoBRET Tracers for Analysis of GPCR Ligand Engagement” (Molecules, 2021).

What was measured:
Format in all cases: binding
CCR9 = target: T1, CCR9 (Homo sapiens, UniProt P51686); assay: NanoBRET screen HiBiT-CCR9 in HEK293
T1 construct: purchased Promega (in-house HiBiT-GPCR construct library, NanoBRET)
T1 sequence (P51686 1-369): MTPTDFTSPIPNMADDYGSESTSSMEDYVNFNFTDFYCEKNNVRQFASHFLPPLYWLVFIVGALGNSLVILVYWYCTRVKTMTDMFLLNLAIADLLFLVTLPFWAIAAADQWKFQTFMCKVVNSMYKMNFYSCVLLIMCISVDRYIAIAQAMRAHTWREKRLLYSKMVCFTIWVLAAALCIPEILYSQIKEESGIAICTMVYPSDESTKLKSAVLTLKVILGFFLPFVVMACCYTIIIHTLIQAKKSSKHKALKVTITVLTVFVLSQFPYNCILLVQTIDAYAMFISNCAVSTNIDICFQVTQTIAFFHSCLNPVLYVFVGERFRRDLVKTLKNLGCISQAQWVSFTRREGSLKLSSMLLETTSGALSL
Experimental: (§1) Each tracer candidate was screened across the entire library of HiBiT-GPCR constructs using NanoBRET as the detection modality. As depicted in Figure 4A, the specificity of interactions was evaluated through decrease in BRET due to competitive displacement of a bound tracer by excess parental compound. Each tracer was analyzed for binding to each HiBiT-GPCR fusion in the absence and in the presence of competing parental compound. Briefly, HEK293 cells were transfected with HiBiT-GPCR constructs diluted into promoterless DNA to reduce expression and maximize translocation to the cell surface. Each tracer candidate was then screened at concentrations of 1 μM and 0.1 μM across cells expressing these fusions. Cells were treated for 1.5 h with tracer either alone or in the presence of 20 μM competing parental compound (i.e., control). BRET was measured upon addition of purified LgBiT and subsequent complementation with HiBiT genetically fused to a GPCR. The specificity of interactions was assessed through a decrease in BRET signal due to competitive displacement of the bound tracer. To further gauge the robustness of these interactions, the fold response over the control (i.e., BRETtracer/BRETcontrol) was calculated. We chose a 1.5-fold response, which translates to ≥7-fold signal over noise as the minimal threshold required to score an interaction as positive. […]. Below we highlight the screening results obtained for our exemplary fluorescent tracers based on Clozapine, Amitriptyline and AZD1283.
(§2) HiBiT-GPCR DNA constructs were diluted in 10 mM Tris pH 8 to a final concentration of 0.01 μg/μL, arrayed in 96-well plates and stored at −20 °C. For transfection, HEK293 cells were suspended in Opti-MEM (without phenol red) supplemented with 2% fetal bovine serum (Seradigm) and 100 units/mL penicillin–streptomycin (Gibco) at a final concentration of 220,000 cells/mL and dispensed into white 96-well plates at 90 μL/well. Subsequent transfections and screens were carried using an Agilent Bravo Automated Liquid Handling Platform. First, the 96-well HiBiT DNA arrays were diluted 25-fold in Opti-MEM (without serum or phenol red) to a final concentration of 0.0004 μg/μL and 20 μL of the diluted DNAs were transferred into new 96-well plates. Next, promoterless carrier DNA (1 μg/μL) was diluted 25-fold (0.04 μg/μL) and then dispensed into the diluted arrays at 20 μL/well. Following brief mixing, Viafect transfection reagent (Promega) diluted 16-fold into Opti-MEM was dispensed into the plates at 40 μL/well. After mixing by pipetting, plates were incubated for 10 min on the pipetting station deck. The DNA-transfection reagent complexes were then added to plates containing cells. To facilitate the screen, 10 μL of DNA-transfection reagent complexes were added in duplicates to the top 4 and bottom 4 rows, resulting in two identical 48-well arrays per plate. Plates with transfected cells were incubated for 18–20 h at 37 °C/5% CO2. A screen of each tracer across the entire library using two different concentrations requires duplicate plates of transfected cells. Depending on the number of tracers being screened, transfections can be scaled up using the same ratios. The next day, for each tracer, four 20× screening solutions in tracer dilution buffer (Promega) were prepared: two duplicates at final concentration of 20 μM and two duplicates at a final concentration of 2 μM. A competing unmodified compound was added to one of each duplicate at a final concentration of 400 μM. The four resulting solutions were diluted 4-fold in Opti-MEM without serum or phenol red to generate 5× solutions (5 µM and 0.5 µM tracer +/− 100 μM competing compound). To screen the library, a BioTek MultiFlo FX liquid dispenser was used to dispense 22.5 µL of tracer solution to the top 4 rows and 22.5 µL tracer + competing compound solution to the 4 bottom rows. Plates were briefly mixed on an orbital shaker and incubated for 1.5 h at room temperature. […]

LTB4R2 = target: T2, LTB4R2 (Homo sapiens, UniProt Q9NPC1); assay: NanoBRET screen HiBiT-LTB4R2 in HEK293
T2 construct: purchased Promega (in-house HiBiT-GPCR construct library, NanoBRET)
T2 sequence (Q9NPC1 1-358): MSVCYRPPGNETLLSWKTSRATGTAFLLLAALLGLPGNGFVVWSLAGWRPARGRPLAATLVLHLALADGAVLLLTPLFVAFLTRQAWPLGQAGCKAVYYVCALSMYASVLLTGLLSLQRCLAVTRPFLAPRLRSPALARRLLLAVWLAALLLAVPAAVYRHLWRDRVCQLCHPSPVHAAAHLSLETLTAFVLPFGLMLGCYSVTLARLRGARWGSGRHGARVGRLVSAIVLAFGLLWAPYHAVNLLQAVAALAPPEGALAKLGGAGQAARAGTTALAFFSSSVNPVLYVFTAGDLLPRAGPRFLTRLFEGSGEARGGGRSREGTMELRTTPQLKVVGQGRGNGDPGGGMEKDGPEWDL
Experimental: as §1, §2

F2RL2 = target: T3, F2RL2 (Homo sapiens, UniProt O00254); assay: NanoBRET screen HiBiT-F2RL2 in HEK293
T3 construct: purchased Promega (in-house HiBiT-GPCR construct library, NanoBRET)
T3 sequence (O00254 22-374): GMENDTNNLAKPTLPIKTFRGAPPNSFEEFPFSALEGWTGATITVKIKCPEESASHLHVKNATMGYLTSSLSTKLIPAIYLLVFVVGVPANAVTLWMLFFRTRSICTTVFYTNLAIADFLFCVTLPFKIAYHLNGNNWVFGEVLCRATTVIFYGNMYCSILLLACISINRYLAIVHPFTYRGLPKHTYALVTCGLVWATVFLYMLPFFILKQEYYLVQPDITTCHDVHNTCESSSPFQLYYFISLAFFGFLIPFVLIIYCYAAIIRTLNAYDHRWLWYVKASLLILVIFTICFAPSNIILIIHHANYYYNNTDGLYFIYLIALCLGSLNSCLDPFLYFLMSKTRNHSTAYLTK
Experimental: as §1, §2

Structure (SMILES)	NanoBRET Fold Response (CCR9; CCR9, 0.1μM tracer)	NanoBRET Fold Response (CCR9; CCR9, 1μM tracer)	NanoBRET Fold Response (LTB4R2; LTB4R2, 0.1μM tracer)	NanoBRET Fold Response (LTB4R2; LTB4R2, 1μM tracer)	NanoBRET Fold Response (F2RL2; F2RL2, 0.1μM tracer)	NanoBRET Fold Response (F2RL2; F2RL2, 1μM tracer)	NanoBRET Fold Response (CCR9; CCR9, tracer 0.1μM)	NanoBRET Fold Response (CCR9; CCR9, tracer 1μM)	NanoBRET Fold Response (LTB4R2; LTB4R2, tracer 0.1μM)	NanoBRET Fold Response (LTB4R2; LTB4R2, tracer 1μM)	NanoBRET Fold Response (F2RL2; F2RL2, tracer 0.1μM)	NanoBRET Fold Response (F2RL2; F2RL2, tracer 1μM)	further results
COc1ccc2[nH]c(-c3ccc(CNC(=O)CCOCCOCCOCCOCCNC(=O)CCc4ccc5n4[B-](F)(F)[N+]4=C(c6ccc[nH]6)C=CC4=C5)cc3)c(CCNC(C)=O)c2n1 [AzomelatoninICO9-2-NB590]													NanoBRET Fold Response (CCR9; 0.1μM tracer): 0.97; NanoBRET Fold Response (CCR9; 1μM tracer): 0.89; NanoBRET Fold Response (LTB4R2; 0.1μM tracer): 1.38; NanoBRET Fold Response (LTB4R2; 1μM tracer): 0.99; NanoBRET Fold Response (F2RL2; 0.1μM tracer): 0.86; NanoBRET Fold Response (F2RL2; 1μM tracer): 0.99
O=C(CCOCCOCCOCCOCCNC(=O)CCc1ccc2n1[B-](F)(F)[N+]1=C(c3ccc[nH]3)C=CC1=C2)NCCCN1CCN(C2=Nc3cc(Cl)ccc3Nc3ccccc32)CC1 [Clozapine-a-2-NB590]	1.03	1.05	1.03	0.88	1.02	1.20							
CN1CCN(C2=Nc3cc(Cl)ccc3Nc3ccc(CNC(=O)CCOCCOCCOCCOCCNC(=O)CCc4ccc5n4[B-](F)(F)[N+]4=C(c6ccc[nH]6)C=CC4=C5)cc32)CC1 [Clozapine-b-2-NB590]	1.01	0.92	0.97	1.16	1.01	1.02							
CN1CCN(C2=Nc3cc(Cl)ccc3N(CC(=O)NCCOCCOCCOCCOCCNC(=O)CCc3ccc4n3[B-](F)(F)[N+]3=C(c5ccc[nH]5)C=CC3=C4)c3ccccc32)CC1 [Clozapine-c-2-NB590]	1.02	0.87	1.02	0.91	1.20	0.97							
O=C(CCOCCOCCOCCOCCNC(=O)CCc1ccc2n1[B-](F)(F)[N+]1=C(c3ccc[nH]3)C=CC1=C2)NCCCN1CCN(C2=Nc3ccccc3Oc3ccc(Cl)cc32)CC1 [Loxapine-a-2-NB590]							1.02	0.91	0.90	0.95	1.03	1.12	
COc1ccccc1N1CCN(CCCCN2C(=O)c3ccc(CNC(=O)CCOCCOCCOCCOCCNC(=O)CCc4ccc5n4[B-](F)(F)[N+]4=C(c6ccc[nH]6)C=CC4=C5)cc3C2=O)CC1 [NAN-190-2-NB590]							0.98	0.99	0.95	1.05	1.02	1.01	
COc1ccccc1N1CCN(CCCCN2C(=O)c3ccc(CNC(=O)CCOCCNC(=O)c4ccc(CNC(=O)CCc5ccc6n5[B-](F)(F)[N+]5=C(c7ccc[nH]7)C=CC5=C6)cc4)cc3C2=O)CC1 [NAN-190-3-NB590]							1.14	1.04	0.76	1.30	1.10	0.95	
